Experimental data published in US9963462B2 (priority 2015, dated 2018).

Columns and labels:
[1] = target: SNAP-hSPR (sepiapterin reductase, SPR) (Homo sapiens, UniProt P35270); assay: biochemical; assay type: binding; details: terbium labelled SNAP-hSPR / SSZ labelled SNAP-EGFP; read-out: hTR-FRET IC50
Text: TR-FRET Assay: A TR-FRET (homogeneous, time-resolved, fluorescence resonance energy transfer) assay was used to assess activity of compounds following standard assay conditions. […] Compounds were screened at different concentrations and IC50 values calculated.
Terbium labelled SNAP-hSPR and SSZ (sulfasalazine) labelled SNAP-EGFP were used as the protein pair in this assay. Compounds were screened at different concentrations, and 1050 and Kd values calculated.

[2] = system: BH4 production in human peripheral blood mononuclear cells (PBMCs); assay: hPBMC assay, inhibition of BH4 production by LC-MS (anti-CD3/anti-CD28 stimulated); assay type: cell-based; details: PBMC, read-out: hPBMC IC50

Sequence of SNAP-hSPR (sepiapterin reductase, SPR) (P35270 whole entry): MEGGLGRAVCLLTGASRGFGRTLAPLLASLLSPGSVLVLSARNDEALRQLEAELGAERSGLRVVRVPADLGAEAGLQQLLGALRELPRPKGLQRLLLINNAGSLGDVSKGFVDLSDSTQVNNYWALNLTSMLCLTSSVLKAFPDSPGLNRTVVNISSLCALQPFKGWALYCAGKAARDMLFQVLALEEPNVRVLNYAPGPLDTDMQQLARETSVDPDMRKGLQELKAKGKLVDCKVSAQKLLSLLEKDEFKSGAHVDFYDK

Row | SMILES | IC50 [1] [nM] | IC50 [2] [nM]
1 | Cc1c(C(=O)N2CCN(c3ncc(-c4cccc(C(F)(F)F)c4)o3)CC2)cnn1-c1nn2cccc2c(=O)[nH]1 [Q-1159] | 20 | 600
2 | Cc1c(C(=O)N2CCc3nc(-c4ccc(F)cc4)sc3C2)cnn1-c1nn2cccc2c(=O)[nH]1 [Q-1160] | 3 | 110
3 | Cc1c(C(=O)N2CCN(c3ncc(-c4ccncc4)o3)CC2)cnn1-c1nn2cccc2c(=O)[nH]1 [Q-1161] | 3 | 310
4 | Cc1c(C(=O)N2CCN(c3ncc(-c4cccnc4)o3)CC2)cnn1-c1nn2cccc2c(=O)[nH]1 [Q-1162] | 1 | 95
5 | Cc1c(C(=O)N2CCN(c3nc(-c4ccnc(Cl)c4)cs3)CC2)cnn1-c1nn2cccc2c(=O)[nH]1 [Q-1163] | 2 | 68
6 | Cc1c(C(=O)N2CCN(c3nc(-c4cccnc4)cs3)CC2)cnn1-c1nn2cccc2c(=O)[nH]1 [Q-1164] | 1 | 37
7 | Cc1c(C(=O)N2CCN(c3nc(-c4ccccc4F)cs3)CC2)cnn1-c1nn2cccc2c(=O)[nH]1 [Q-1165] | 6 | 190
8 | Cc1c(C(=O)N2CCc3nc(-c4cccc(Cl)c4)sc3C2)cnn1-c1nn2cccc2c(=O)[nH]1 [Q-1166] | 5 | 20
9 | Cc1c(C(=O)N2CCc3nc(-c4cccc(C(F)(F)F)c4)sc3C2)cnn1-c1nn2cccc2c(=O)[nH]1 [Q-1167] | 10 | 81
10 | Cc1c(C(=O)N2CC3CC(C2)N3C2CCC2)cnn1-c1nn2cccc2c(=O)[nH]1 [Q-1168] | 3 | 58
11 | Cc1c(C(=O)N2CC3CC(C2)N3C(=O)OC(C)(C)C)cnn1-c1nn2cccc2c(=O)[nH]1 [Q-1170] | 1 | 160
12 | Cc1c(C(=O)N2CCN(c3ncc(-c4ccccc4C(F)(F)F)o3)CC2)cnn1-c1nn2cccc2c(=O)[nH]1 [Q-1171] | 10 | 140
13 | Cc1c(C(=O)N2CCN(c3nc(-c4ccccc4C#N)cs3)CC2)cnn1-c1nn2cccc2c(=O)[nH]1 [Q-1172] | 3 | 180
14 | Cc1c(C(=O)N2CCN(c3nc(-c4cccc(C(F)(F)F)c4)cs3)CC2)cnn1-c1nn2cccc2c(=O)[nH]1 [Q-1173] | 20 | 290
15 | Cc1c(C(=O)N2CC3CCCC(C2)C3=CC(F)(F)F)cnn1-c1nn2cccc2c(=O)[nH]1 [Q-1174] | 1 | 22
16 | Cc1c(C(=O)N2CCN(c3ncc(-c4ccc(C(F)(F)F)cc4)o3)CC2)cnn1-c1nn2cccc2c(=O)[nH]1 [Q-1175] | 20 | 450
17 | Cc1c(C(=O)N2CCN(c3ncc(-c4cccc(Cl)c4)o3)CC2)cnn1-c1nn2cccc2c(=O)[nH]1 [Q-1176] | 9 | 280
18 | Cc1c(C(=O)NC2CC(F)(F)C2)cnn1-c1nn2cccc2c(=O)[nH]1 [Q-1177] | 9 | 1300
19 | Cc1c(C(=O)N2CCN(c3nnc(-c4ccc(C(F)(F)F)cn4)o3)CC2)cnn1-c1nn2cccc2c(=O)[nH]1 [Q-1178] | 9 | 2600
20 | Cc1c(C(=O)N2CCN(c3nc(-c4ccc(Cl)nc4)cs3)CC2)cnn1-c1nn2cccc2c(=O)[nH]1 [Q-1179] | 2 | 110
21 | Cc1c(C(=O)N2CCN(c3nc(-c4ccc(F)nc4)cs3)CC2)cnn1-c1nn2cccc2c(=O)[nH]1 [Q-1180] | 2 | 47
22 | Cc1c(C(=O)N2CCN(c3nc(-c4cccc(C#N)c4)cs3)CC2)cnn1-c1nn2cccc2c(=O)[nH]1 [Q-1181] | 2 | 11

Row | SMILES | IC50 [1] [nM] | IC50 [2] [nM]
23 | Cc1c(C(=O)N2CCN(c3nc(-c4ccncc4)cs3)CC2)cnn1-c1nn2cccc2c(=O)[nH]1 [Q-1182] | 1 | 48
24 | Cc1c(C(=O)N2CCCN(CCC(F)(F)F)CC2)cnn1-c1nn2cccc2c(=O)[nH]1 [Q-1183] | 4 | 110
25 | Cc1c(C(=O)N2CCC(C3CC3)CC2)nnn1-c1nn2cccc2c(=O)[nH]1 [Q-1184] | 2 | 37
26 | Cc1c(C(=O)N2CC(N3CCC(F)(F)C3)C2)nnn1-c1nn2cccc2c(=O)[nH]1 [Q-1185] | 1 | 110
27 | Cc1c(C(=O)N2C[C@H]3CCC[C@@H](C2)[C@H]3CC(F)(F)F)cnn1-c1nn2cccc2c(=O)[nH]1 [Q-1186] | 1 | 36
28 | Cc1c(C(=O)N2CCc3nc(-c4ccncc4)sc3C2)cnn1-c1nn2cccc2c(=O)[nH]1 [Q-1187] | 4 | 190
29 | Cc1c(C(=O)N2CCN(c3nnc(-c4ccccc4Cl)o3)CC2)cnn1-c1nn2cccc2c(=O)[nH]1 [Q-1188] | 6 | 290
30 | Cc1c(C(=O)N2CCN(c3ncc(-c4ccc(Cl)nc4)o3)CC2)nnn1-c1nn2cccc2c(=O)[nH]1 [Q-1190] | 10 | 59
31 | Cc1c(C(=O)N2CCN(C3CCC3)CC2)nnn1-c1nn2cccc2c(=O)[nH]1 [Q-1191] | 1 | 20
32 | Cc1c(C(=O)N2CCC3(CCCC3=O)CC2)cnn1-c1nn2cccc2c(=O)[nH]1 [Q-1192] | 1 | 40
33 | Cc1c(C(=O)N2CCN(c3nnc(-c4cccc(F)c4)o3)CC2)cnn1-c1nn2cccc2c(=O)[nH]1 [Q-1193] | 7 | 160
34 | Cc1c(C(=O)N2CC3CC(C2)N3CCC(F)(F)F)cnn1-c1nn2cccc2c(=O)[nH]1 [Q-1194] | 2 | 60
35 | Cc1c(C(=O)N2CCN(c3nc(-c4ccnc(F)c4)cs3)CC2)cnn1-c1nn2cccc2c(=O)[nH]1 [Q-1196] | 3 | 52
36 | Cc1c(C(=O)N2CCN(c3ncc(-c4ccc(F)nc4)s3)CC2)cnn1-c1nn2cccc2c(=O)[nH]1 [Q-1197] | 3 | 26
37 | COCC(C1CCN(C(=O)c2cnn(-c3nn4cccc4c(=O)[nH]3)c2C)CC1)C(F)(F)F (centres unmarked) [Q-1198] | 1 | 17
38 | Cc1c(C(=O)N2C[C@H]3CCC[C@@H](C2)[C@@H]3CC(F)(F)F)cnn1-c1nn2cccc2c(=O)[nH]1 [Q-1199] | 1 | 29
39 | Cc1c(C(=O)N2CCN(CC(F)(F)F)C3(CCC3)C2)cnn1-c1nn2cccc2c(=O)[nH]1 [Q-1200] | 1 | 150
40 | Cc1c(C(=O)N2CCN(C3CC3)CC2)nnn1-c1nn2cccc2c(=O)[nH]1 [Q-1201] | 1 | 69
41 | Cc1c(C(=O)N2CCN(c3ncc(-c4ccc(F)cc4)o3)CC2)cnn1-c1nn2cccc2c(=O)[nH]1 [Q-1202] | 5 | 260
42 | Cc1c(C(=O)N2CCN(c3ncc(-c4ccccc4C#N)o3)CC2)cnn1-c1nn2cccc2c(=O)[nH]1 [Q-1203] | 6 | 180
43 | Cc1c(C(=O)N2CCCN(C3CC3)CC2)cnn1-c1nn2cccc2c(=O)[nH]1 [Q-1205] | 3 | 35
44 | Cc1c(C(=O)N2CCc3nc(-c4cccnc4)sc3C2)cnn1-c1nn2cccc2c(=O)[nH]1 [Q-1206] | 1 | 70

Row | SMILES | IC50 [1] [nM] | IC50 [2] [nM]
45 | CCCC(=O)C1CCN(C(=O)c2cnn(-c3nn4cccc4c(=O)[nH]3)c2C)CC1 [Q-1207] | 1 | 29
46 | Cc1c(C(=O)N2CCC(C(=O)C3CC3)CC2)cnn1-c1nn2cccc2c(=O)[nH]1 [Q-1208] | 1 | 61
47 | Cc1c(C(=O)N2CCC3(CCC3=O)CC2)cnn1-c1nn2cccc2c(=O)[nH]1 [Q-1209] | 1 | 920
48 | Cc1c(C(=O)N2CCN(c3nc(-c4ccc(C#N)cc4)cs3)CC2)cnn1-c1nn2cccc2c(=O)[nH]1 [Q-1210] | 2 | 84
49 | Cc1c(C(=O)N2CCN(c3ncc(-c4ccc(C#N)cc4)s3)CC2)cnn1-c1nn2cccc2c(=O)[nH]1 [Q-1211] | 10 | 160
50 | Cc1c(C(=O)N2CCN(c3ncc(-c4cccc(C#N)c4)o3)CC2)cnn1-c1nn2cccc2c(=O)[nH]1 [Q-1212] | 1 | 13
51 | Cc1c(C(=O)N2CCN(C(=O)C3CC3)CC2)cnn1-c1nn2cccc2c(=O)[nH]1 [Q-1213] | 3 | 890
52 | CCC(=O)N1CCN(C(=O)c2cnn(-c3nn4cccc4c(=O)[nH]3)c2C)CC1 [Q-1214] | 6 | 1000
53 | CC(=O)C1(c2ccccc2)CCN(C(=O)c2cnn(-c3nn4cccc4c(=O)[nH]3)c2C)CC1 [Q-1215] | 1 | 17
54 | Cc1c(C(=O)N2CCN(CC(F)(F)F)c3ccccc32)cnn1-c1nn2cccc2c(=O)[nH]1 [Q-1216] | 1 | 46
55 | Cc1c(C(=O)N2CCC2c2cccc(F)n2)cnn1-c1nn2cccc2c(=O)[nH]1 (centres unmarked) [Q-1217] | 3 | 270
56 | Cc1c(C(=O)N2CCCN(C(C)C(F)(F)F)CC2)cnn1-c1nn2cccc2c(=O)[nH]1 (centres unmarked) [Q-1218] | 3 | 130
57 | Cc1c(C(=O)N2CCC(n3cccc3C#N)CC2)cnn1-c1nn2cccc2c(=O)[nH]1 [Q-1219] | 1 | 79
58 | Cc1c(C(=O)N2CCC3(CCCCC3=O)CC2)cnn1-c1nn2cccc2c(=O)[nH]1 [Q-1220] | 1 | 22
59 | O=C(c1cn(-c2nn3cccc3c(=O)[nH]2)nn1)N1CCN(C2CC2)CC1 [Q-1221] | 1 | 37
60 | O=C(c1cn(-c2nn3cccc3c(=O)[nH]2)nn1)N1CCC(C2CC2)CC1 [Q-1222] | 1 | 25
61 | O=C(c1cn(-c2nn3cccc3c(=O)[nH]2)nn1)N1CCN(CC(F)(F)F)CC1 [Q-1223] | 3 | 24
62 | O=C(c1cn(-c2nn3cccc3c(=O)[nH]2)nn1)N1CC(N2CCC(F)(F)C2)C1 [Q-1224] | 9 | 370
63 | Cc1c(C(=O)N2CC3CC(C2)N3CC(F)(F)F)nnn1-c1nn2cccc2c(=O)[nH]1 [Q-1225] | 1 | 29
64 | O=C(c1cn(-c2nn3cccc3c(=O)[nH]2)nn1)N1CC2CC(C1)N2CC(F)(F)F [Q-1226] | 7 | 410
